Among the data in patent US9096602B2, “Substituted pyrrolo[2,3-B]pyrazines as ATR kinase inhibitors” (Vertex Pharmaceuticals Incorporated, priority 2011, dated 2015) are Ki values, retold here.

This experiment deals with T1, ATR kinase (full-length ATR) (Homo sapiens, UniProt Q13535).
T1 construct: Assays were carried out at 25° C. in the presence of 5 nM full-length ATR
Nature of the experiment: ATR Inhibition Assay (radioactive-phosphate incorporation). It is filed as biochemical. To be noted: Ki(app), 5 nM full-length ATR, 10 μM ATP, 800 μM target peptide, 25° C., read-out: ATR Inhibition Ki. The procedure:
Compounds were screened for their ability to inhibit ATR kinase using a radioactive-phosphate incorporation assay. Assays were carried out in a mixture of 50 mM Tris/HCl (pH 7.5), 10 mM MgCl2 and 1 mM DTT. Final substrate concentrations were 10 μM [y-33P]ATP (3mCi 33P ATP/mmol ATP, Perkin Elmer) and 800 μM target peptide ([…]).
Assays were carried out at 25° C. in the presence of 5 nM full-length ATR. An assay stock buffer solution was prepared containing all of the reagents listed above, with the exception of ATP and the test compound of interest. […] The plate was pre-incubated for 10 minutes at 25° C. and the reaction initiated by addition of 15 μL [y-33P]ATP (final concentration 10 μM).
The reaction was stopped after […] by the addition of 30 μL 0.1M phosphoric acid containing 2 mM ATP. A multiscreen phosphocellulose filter 96-well plate (Millipore, Cat no. MAPHN0B50) was pretreated with 100 μL 0.2M phosphoric acid prior to the addition of 45 μL of the stopped assay mixture. The plate was washed with 5×200 μL 0.2M phosphoric acid.
After removing mean background values for all of the data points, Ki(app) data were calculated from non-linear regression analysis of the initial rate data using the Prism software package (GraphPad Prism version 3.0cx for Macintosh, GraphPad Software, San Diego Calif., USA).

The mark [1] stands for this setting: given as numeric lower bound without unit.

Structures are written as SMILES. Read-outs that look alike come from different tables or passages of the source. A value given as a limit tells only on which side of the number the result lay.

T1 sequence (Q13535 whole entry): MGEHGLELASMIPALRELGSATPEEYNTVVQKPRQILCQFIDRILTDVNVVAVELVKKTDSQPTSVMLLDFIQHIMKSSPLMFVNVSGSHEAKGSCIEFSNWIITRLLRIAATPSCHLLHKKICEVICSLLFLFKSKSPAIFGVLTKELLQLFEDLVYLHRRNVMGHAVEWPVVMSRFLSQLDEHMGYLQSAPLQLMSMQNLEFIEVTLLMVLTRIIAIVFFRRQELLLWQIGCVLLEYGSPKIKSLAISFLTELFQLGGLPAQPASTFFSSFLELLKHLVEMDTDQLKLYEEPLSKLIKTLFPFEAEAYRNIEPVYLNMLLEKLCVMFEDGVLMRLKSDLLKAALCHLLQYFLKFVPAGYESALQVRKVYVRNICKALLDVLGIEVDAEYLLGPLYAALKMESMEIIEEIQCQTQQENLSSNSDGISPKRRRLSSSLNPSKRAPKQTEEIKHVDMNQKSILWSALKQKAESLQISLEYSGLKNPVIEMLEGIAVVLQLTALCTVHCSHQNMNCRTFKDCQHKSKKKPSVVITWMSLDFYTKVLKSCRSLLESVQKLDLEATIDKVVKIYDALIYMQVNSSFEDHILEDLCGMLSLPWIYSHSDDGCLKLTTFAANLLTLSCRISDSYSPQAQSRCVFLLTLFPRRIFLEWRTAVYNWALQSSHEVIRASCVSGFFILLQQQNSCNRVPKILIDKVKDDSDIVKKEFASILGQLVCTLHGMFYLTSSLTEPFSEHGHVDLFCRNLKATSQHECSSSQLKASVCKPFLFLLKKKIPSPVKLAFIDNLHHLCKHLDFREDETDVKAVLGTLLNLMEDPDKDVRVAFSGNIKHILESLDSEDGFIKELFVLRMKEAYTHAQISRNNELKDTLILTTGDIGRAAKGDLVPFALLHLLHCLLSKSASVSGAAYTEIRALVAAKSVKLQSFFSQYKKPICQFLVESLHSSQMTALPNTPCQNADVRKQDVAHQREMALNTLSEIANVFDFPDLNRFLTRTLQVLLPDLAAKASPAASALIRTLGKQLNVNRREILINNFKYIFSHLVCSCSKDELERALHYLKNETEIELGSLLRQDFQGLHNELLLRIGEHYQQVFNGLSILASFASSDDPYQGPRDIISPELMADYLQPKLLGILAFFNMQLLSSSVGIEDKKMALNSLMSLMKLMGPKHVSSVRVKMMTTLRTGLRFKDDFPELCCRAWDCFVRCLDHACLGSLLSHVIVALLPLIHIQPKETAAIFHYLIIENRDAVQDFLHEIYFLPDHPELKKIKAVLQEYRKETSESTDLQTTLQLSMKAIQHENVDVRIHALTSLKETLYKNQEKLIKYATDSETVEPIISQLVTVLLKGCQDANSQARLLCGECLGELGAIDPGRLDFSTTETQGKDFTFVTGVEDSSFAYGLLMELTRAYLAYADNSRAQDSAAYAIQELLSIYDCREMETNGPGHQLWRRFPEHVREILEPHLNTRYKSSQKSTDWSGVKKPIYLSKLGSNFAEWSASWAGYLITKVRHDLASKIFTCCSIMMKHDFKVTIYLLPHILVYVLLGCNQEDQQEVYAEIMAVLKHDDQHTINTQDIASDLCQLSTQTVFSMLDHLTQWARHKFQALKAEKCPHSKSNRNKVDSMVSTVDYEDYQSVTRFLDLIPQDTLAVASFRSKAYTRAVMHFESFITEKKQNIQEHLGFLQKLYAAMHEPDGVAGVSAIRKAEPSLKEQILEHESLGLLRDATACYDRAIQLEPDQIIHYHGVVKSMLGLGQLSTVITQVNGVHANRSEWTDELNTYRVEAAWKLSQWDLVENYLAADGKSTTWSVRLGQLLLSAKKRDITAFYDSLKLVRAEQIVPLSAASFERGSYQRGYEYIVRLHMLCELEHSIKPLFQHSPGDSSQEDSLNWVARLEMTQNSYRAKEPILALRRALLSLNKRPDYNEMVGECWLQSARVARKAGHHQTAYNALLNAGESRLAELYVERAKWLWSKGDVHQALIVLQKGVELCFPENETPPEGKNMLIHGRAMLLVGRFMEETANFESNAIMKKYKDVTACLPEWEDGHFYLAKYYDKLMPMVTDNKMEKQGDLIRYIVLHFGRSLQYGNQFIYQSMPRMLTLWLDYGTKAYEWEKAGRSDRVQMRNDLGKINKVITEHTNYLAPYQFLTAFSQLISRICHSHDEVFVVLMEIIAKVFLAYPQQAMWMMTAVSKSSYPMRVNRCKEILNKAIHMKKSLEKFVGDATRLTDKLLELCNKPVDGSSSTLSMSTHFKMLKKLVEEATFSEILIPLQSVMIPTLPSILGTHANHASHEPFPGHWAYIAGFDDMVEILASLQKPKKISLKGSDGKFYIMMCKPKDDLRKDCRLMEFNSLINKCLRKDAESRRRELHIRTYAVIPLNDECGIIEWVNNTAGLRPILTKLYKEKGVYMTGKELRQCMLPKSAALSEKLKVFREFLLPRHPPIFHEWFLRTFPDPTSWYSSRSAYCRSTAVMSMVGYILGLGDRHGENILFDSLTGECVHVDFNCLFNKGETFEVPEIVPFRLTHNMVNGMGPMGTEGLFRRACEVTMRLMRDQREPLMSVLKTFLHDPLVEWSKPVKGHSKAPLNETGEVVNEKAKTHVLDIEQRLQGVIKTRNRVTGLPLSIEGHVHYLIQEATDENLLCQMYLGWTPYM

As to `CC(C)S(=O)(=O)c1ccc(-c2cnc3[nH]cc(C(=O)NCc4ccccc4)c3n2)cc1` [Compound I-1, N-benzyl-2-(4-isopropylsulfonylphenyl)-5H-pyrrolo[2,3-b]pyrazine-7-carboxamide], the Ki (class symbols) is less than 100 nM.
Turning to `Cc1cc(NC(=O)c2c[nH]c3ncc(-c4ccc(S(=O)(=O)C(C)C)cc4)nc23)[nH]n1` [Compound I-55, 2-(4-isopropylsulfonylphenyl)-N-(3-methyl-1H-pyrazol-5-yl)-5H-pyrrolo[2,3-b]pyrazine-7-carboxamide], the Ki (class symbols) is less than 100 nM.
On to `CC(C)S(=O)(=O)c1ccc(-c2cnc3[nH]cc(C(=O)NC4CNC4)c3n2)cc1` [Compound I-122, N-(azetidin-3-yl)-2-(4-isopropylsulfonylphenyl)-5H-pyrrolo[2,3-b]pyrazine-7-carboxamide], for which the Ki (class symbols) was in the range of 500 to 5000 nM.
On to `Cc1cccnc1CNC(=O)c1c[nH]c2ncc(-c3ccc(S(=O)(=O)C(C)C)cc3)nc12` [Compound I-83, 2-(4-isopropylsulfonylphenyl)-N-[(3-methyl-2-pyridyl)methyl]-5H-pyrrolo[2,3-b]pyrazine-7-carboxamide], for which, under “class symbols”, the Ki was in the range of 100 to 500 nM.
On the same count and under the same terms, as for `CC(C)S(=O)(=O)c1ccc(-c2cnc3[nH]cc(C(=O)NCc4cccc(F)c4)c3n2)cc1` [Compound I-75, N-[(3-fluorophenyl)methyl]-2-(4-isopropylsulfonylphenyl)-5H-pyrrolo[2,3-b]pyrazine-7-carboxamide], the figure is 100 to 500 nM.
Consider `CC(C)S(=O)(=O)c1ccc(-c2cnc3[nH]cc(C(=O)NC[C@@H](O)c4ccccc4)c3n2)cc1` [Compound I-62, N-[(2S)-2-hydroxy-2-phenyl-ethyl]-2-(4-isopropylsulfonylphenyl)-5H-pyrrolo[2,3-b]pyrazine-7-carboxamide], for which the Ki (class symbols) was less than 100 nM.
On to `CC(C)S(=O)(=O)c1ccc(-c2cnc3[nH]cc(C(=O)N4CCCCC4)c3n2)cc1` [Compound I-39, [2-(4-isopropylsulfonylphenyl)-5H-pyrrolo[2,3-b]pyrazin-7-yl]-(1-piperidyl)methanone], for which the Ki under setting [1] was greater than 250 nM.
Take `CC(C)S(=O)(=O)c1ccc(-c2cnc3[nH]cc(C(=O)N[C@H](C)[C@@H](O)c4ccc(O)cc4)c3n2)cc1` [Compound I-84, N-[(1R,2S)-2-hydroxy-2-(4-hydroxyphenyl)-1-methyl-ethyl]-2-(4-isopropylsulfonylphenyl)-5H-pyrrolo[2,3-b]pyrazine-7-carboxamide]: the Ki (class symbols) fell in the range of 100 to 500 nM.
`Cc1ccc(NC(=O)c2c[nH]c3ncc(-c4ccc(S(=O)(=O)C(C)C)cc4)nc23)cc1F` [Compound I-64, N-(3-fluoro-4-methyl-phenyl)-2-(4-isopropylsulfonylphenyl)-5H-pyrrolo[2,3-b]pyrazine-7-carboxamide]: where the note is “class symbols”, the Ki was less than 100 nM.
`CC(C)S(=O)(=O)c1ccc(-c2cnc3[nH]cc(C(=O)N[C@@H](C)c4ccccc4F)c3n2)cc1` [Compound I-71, N-[(1S)-1-(2-fluorophenyl)ethyl]-2-(4-isopropylsulfonylphenyl)-5H-pyrrolo[2,3-b]pyrazine-7-carboxamide]: the Ki (class symbols) was in the range of 100 to 500 nM.
Regarding `CC(C)S(=O)(=O)c1ccc(-c2cnc3[nH]cc(C(=O)Nc4ccccc4)c3n2)cc1` [Compound I-2, 2-(4-isopropylsulfonylphenyl)-N-phenyl-5H-pyrrolo[2,3-b]pyrazine-7-carboxamide], the Ki (class symbols) was less than 100 nM.
Consider `CC(C)S(=O)(=O)c1ccc(-c2cnc3[nH]cc(C(=O)N[C@@H](C)CO)c3n2)cc1` [Compound I-106, N-[(1S)-2-hydroxy-1-methyl-ethyl]-2-(4-isopropylsulfonylphenyl)-5H-pyrrolo[2,3-b]pyrazine-7-carboxamide], for which the Ki (class symbols) was in the range of 100 to 500 nM.
With `CC(C)S(=O)(=O)c1ccc(-c2cnc3[nH]cc(C(=O)NC4CN(C(=O)OC(C)(C)C)C4)c3n2)cc1` [Compound I-111, tert-butyl 3-[[2-(4-isopropylsulfonylphenyl)-5H-pyrrolo[2,3-b]pyrazine-7-carbonyl]amino]azetidine-1-carboxylate], the Ki under setting [1] was greater than 250 nM.
Turning to `Cc1ccc(CNC(=O)c2c[nH]c3ncc(-c4ccc(S(=O)(=O)C(C)C)cc4)nc23)c(C)c1` [Compound I-82, N-[(2,4-dimethylphenyl)methyl]-2-(4-isopropylsulfonylphenyl)-5H-pyrrolo[2,3-b]pyrazine-7-carboxamide], under “class symbols”, the Ki is less than 100 nM.
Consider `CC(C)S(=O)(=O)c1ccc(-c2cnc3[nH]cc(C(=O)N[C@@H](C(N)=O)c4ccccc4)c3n2)cc1` [Compound I-123, N-[(1R)-2-amino-2-oxo-1-phenyl-ethyl]-2-(4-isopropylsulfonylphenyl)-5H-pyrrolo[2,3-b]pyrazine-7-carboxamide], for which the Ki (class symbols) was in the range of 100 to 500 nM.
Same read-out and setting: under `CCC(CC)NC(=O)c1c[nH]c2ncc(-c3ccc(S(=O)(=O)C(C)C)cc3)nc12` [Compound I-107, N-(1-ethylpropyl)-2-(4-isopropylsulfonylphenyl)-5H-pyrrolo[2,3-b]pyrazine-7-carboxamide] stands 500 to 5000 nM.
In the case of `COc1ccc(NC(=O)c2c[nH]c3ncc(-c4ccc(S(=O)(=O)C(C)C)cc4)nc23)cc1` [Compound I-12, 2-(4-isopropylsulfonylphenyl)-N-(4-methoxyphenyl)-5H-pyrrolo[2,3-b]pyrazine-7-carboxamide], under “class symbols”, the Ki was in the range of 100 to 500 nM.
Regarding `CC(c1ccc(Cl)cc1)N(C)C(=O)c1c[nH]c2ncc(-c3ccc(S(=O)(=O)C(C)C)cc3)nc12` (centres unmarked) [Compound I-135, N-[1-(4-chlorophenyl)ethyl]-2-(4-isopropylsulfonylphenyl)-N-methyl-5H-pyrrolo[2,3-b]pyrazine-7-carboxamide], the Ki (class symbols) was less than 100 nM.
Regarding `CC(C)S(=O)(=O)c1ccc(-c2cnc3[nH]cc(C(=O)N[C@H](C(N)=O)c4ccccc4)c3n2)cc1` [Compound I-124, N-[(1S)-2-amino-2-oxo-1-phenyl-ethyl]-2-(4-isopropylsulfonylphenyl)-5H-pyrrolo[2,3-b]pyrazine-7-carboxamide], the Ki (class symbols) fell in the range of 100 to 500 nM.
Turning to `CC(C)S(=O)(=O)c1ccc(-c2cnc3[nH]cc(C(=O)NCC4CCCCC4O)c3n2)cc1` (centres unmarked) [Compound I-101, N-[(2-hydroxycyclohexyl)methyl]-2-(4-isopropylsulfonylphenyl)-5H-pyrrolo[2,3-b]pyrazine-7-carboxamide], the Ki (class symbols) was less than 100 nM.
Consider `CC(C)S(=O)(=O)c1ccc(-c2cnc3[nH]cc(C(=O)NCC4CCCCC4)c3n2)cc1` [Compound I-31, N-(cyclohexylmethyl)-2-(4-isopropylsulfonylphenyl)-5H-pyrrolo[2,3-b]pyrazine-7-carboxamide], for which the Ki under setting [1] is greater than 500 nM.
In the case of `CC(C)S(=O)(=O)c1ccc(-c2cnc3[nH]cc(C(=O)N(CCO)c4ccccc4)c3n2)cc1` [Compound I-10, N-(2-hydroxyethyl)-2-(4-isopropylsulfonylphenyl)-N-phenyl-5H-pyrrolo[2,3-b]pyrazine-7-carboxamide], under “class symbols”, the Ki was in the range of 100 to 500 nM.
Same read-out and setting: under `COC[C@H](C)NC(=O)c1c[nH]c2ncc(-c3ccc(S(=O)(=O)C(C)C)cc3)nc12` [Compound I-110, 2-(4-isopropylsulfonylphenyl)-N-[(1S)-2-methoxy-1-methyl-ethyl]-5H-pyrrolo[2,3-b]pyrazine-7-carboxamide] stands 100 to 500 nM; under `CC(C)S(=O)(=O)c1ccc(-c2cnc3[nH]cc(C(=O)N[C@H]4c5ccccc5C[C@H]4O)c3n2)cc1` [Compound I-69, N-[(1S,2R)-2-hydroxyindan-1-yl]-2-(4-isopropylsulfonylphenyl)-5H-pyrrolo[2,3-b]pyrazine-7-carboxamide], less than 100 nM.
Take `CC(C)S(=O)(=O)c1ccc(-c2cnc3[nH]cc(C(=O)NC4CCOc5ccccc54)c3n2)cc1` (centres unmarked) [Compound I-86, N-chroman-4-yl-2-(4-isopropylsulfonylphenyl)-5H-pyrrolo[2,3-b]pyrazine-7-carboxamide]: for the setting “class symbols”, the Ki was less than 100 nM.
Take `CC(C)S(=O)(=O)c1ccc(-c2cnc3[nH]cc(C(=O)N4CCc5ccccc54)c3n2)cc1` [Compound I-7, indolin-1-yl-[2-(4-isopropylsulfonylphenyl)-5H-pyrrolo[2,3-b]pyrazin-7-yl]methanone]: the Ki (class symbols) is 100 to 500 nM.
On to `CC(C)S(=O)(=O)c1ccc(-c2cnc3[nH]cc(C(=O)NC[C@@H]4CCCC[C@H]4O)c3n2)cc1` [Compound I-33, N-[[(1S,2R)-2-hydroxycyclohexyl]methyl]-2-(4-isopropylsulfonylphenyl)-5H-pyrrolo[2,3-b]pyrazine-7-carboxamide], for which the Ki (class symbols) was less than 100 nM.
On to `Cc1cccc(CNC(=O)c2c[nH]c3ncc(-c4ccc(S(=O)(=O)C(C)C)cc4)nc23)c1Cl` [Compound I-66, N-[(2-chloro-3-methyl-phenyl)methyl]-2-(4-isopropylsulfonylphenyl)-5H-pyrrolo[2,3-b]pyrazine-7-carboxamide], for which the Ki (class symbols) was less than 100 nM.
Consider `CC(C)S(=O)(=O)c1ccc(-c2cnc3[nH]cc(C(=O)NC4CCS(=O)(=O)C4)c3n2)cc1` (centres unmarked) [Compound I-103, N-(1,1-dioxothiolan-3-yl)-2-(4-isopropylsulfonylphenyl)-5H-pyrrolo[2,3-b]pyrazine-7-carboxamide], for which the Ki (class symbols) is 500 to 5000 nM.
